Key:
[1] = target: Ribosomal protein S6 kinase alpha-5 (Homo sapiens) (UniProt O75582); conditions: Compound concentration 100.0 nM
[2] = target: Tyrosine-protein kinase BTK (Homo sapiens) (UniProt Q06187); conditions: Compound concentration 100.0 nM
[3] = target: T1, Mitogen-activated protein kinase 12 (Homo sapiens) (UniProt P53778); conditions: Compound concentration 100.0 nM
T1 sequence (whole entry): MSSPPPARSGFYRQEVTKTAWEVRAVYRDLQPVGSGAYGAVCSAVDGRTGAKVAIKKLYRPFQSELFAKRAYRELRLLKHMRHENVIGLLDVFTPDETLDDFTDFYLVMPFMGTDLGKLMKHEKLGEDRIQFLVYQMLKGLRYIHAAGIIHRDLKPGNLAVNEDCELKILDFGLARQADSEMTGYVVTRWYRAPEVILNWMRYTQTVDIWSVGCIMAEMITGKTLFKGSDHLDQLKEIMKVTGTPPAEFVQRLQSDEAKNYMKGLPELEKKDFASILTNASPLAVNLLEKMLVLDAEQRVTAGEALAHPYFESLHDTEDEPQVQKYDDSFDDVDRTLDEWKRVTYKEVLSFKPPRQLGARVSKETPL

[4] = target: Mitogen-activated protein kinase kinase kinase 12 (Homo sapiens) (UniProt Q12852); conditions: Compound concentration 100.0 nM
[5] = system: Tyrosine-protein kinase ABL1 (Homo sapiens), P00519 [Q252H]; conditions: Compound concentration 100.0 nM
[6] = target: Leukocyte tyrosine kinase receptor (Homo sapiens) (UniProt P29376); conditions: Compound concentration 100.0 nM
[7] = target: MAP kinase-interacting serine/threonine-protein kinase 1 (Homo sapiens) (UniProt Q9BUB5); conditions: Compound concentration 100.0 nM
[8] = target: Inhibitor of nuclear factor kappa-B kinase subunit epsilon (Homo sapiens) (UniProt Q14164); conditions: Compound concentration 100.0 nM
[9] = system: Receptor-type tyrosine-protein kinase FLT3 (Homo sapiens), P36888 [R834Q]; conditions: Compound concentration 100.0 nM
[10] = target: Mitogen-activated protein kinase 9 (Homo sapiens) (UniProt P45984); conditions: Compound concentration 100.0 nM
[11] = system: Receptor-type tyrosine-protein kinase FLT3 (Homo sapiens), P36888 [D835H]; conditions: Compound concentration 100.0 nM
[12] = target: Tyrosine-protein kinase Fes/Fps (Homo sapiens) (UniProt P07332); conditions: Compound concentration 100.0 nM
[13] = target: Mitogen-activated protein kinase kinase kinase 4 (Homo sapiens) (UniProt Q9Y6R4); conditions: Compound concentration 100.0 nM
[14] = target: Fibroblast growth factor receptor 1 (Homo sapiens) (UniProt P11362); conditions: Compound concentration 100.0 nM
[15] = target: MAP/microtubule affinity-regulating kinase 3 (Homo sapiens) (UniProt P27448); conditions: Compound concentration 100.0 nM
[16] = target: Serine/threonine-protein kinase VRK2 (Homo sapiens) (UniProt Q86Y07); conditions: Compound concentration 100.0 nM
[17] = target: Ephrin type-A receptor 7 (Homo sapiens) (UniProt Q15375); conditions: Compound concentration 100.0 nM
[18] = target: Cyclin-dependent kinase 19 (Homo sapiens) (UniProt Q9BWU1); conditions: Compound concentration 100.0 nM
[19] = system: Tyrosine-protein kinase ABL1 (Homo sapiens), P00519 [Q252H]; conditions: Compound concentration 100.0 nM; remark: listed apart in the source
[20] = target: Dual specificity protein kinase CLK4 (Homo sapiens) (UniProt Q9HAZ1); conditions: Compound concentration 100.0 nM
[21] = target: T2, Mitogen-activated protein kinase 13 (Homo sapiens) (UniProt O15264); conditions: Compound concentration 100.0 nM
T2 sequence (whole entry): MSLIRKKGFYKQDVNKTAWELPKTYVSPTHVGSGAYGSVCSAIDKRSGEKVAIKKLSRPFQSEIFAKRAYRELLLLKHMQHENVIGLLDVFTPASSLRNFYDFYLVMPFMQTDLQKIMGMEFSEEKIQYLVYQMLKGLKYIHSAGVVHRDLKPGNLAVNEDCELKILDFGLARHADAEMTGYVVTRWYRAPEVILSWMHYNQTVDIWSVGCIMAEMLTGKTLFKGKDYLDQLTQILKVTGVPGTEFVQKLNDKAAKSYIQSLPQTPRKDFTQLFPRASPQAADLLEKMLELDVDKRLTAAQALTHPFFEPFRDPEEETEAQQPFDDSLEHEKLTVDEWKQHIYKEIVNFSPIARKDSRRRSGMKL

[22] = target: Tyrosine-protein kinase TXK (Homo sapiens) (UniProt P42681); conditions: Compound concentration 100.0 nM
[23] = target: Phosphatidylinositol 4,5-bisphosphate 3-kinase catalytic subunit alpha isoform (Homo sapiens) (UniProt P42336); conditions: Compound concentration 100.0 nM
[24] = system: Fibroblast growth factor receptor 3 (Homo sapiens), P22607 [G697C]; conditions: Compound concentration 100.0 nM
[25] = target: 5-hydroxytryptamine receptor 2B (Homo sapiens) (UniProt P41595); conditions: Compound concentration 10.0 uM
[26] = target: MAP kinase-activated protein kinase 2 (Homo sapiens) (UniProt P49137); conditions: Compound concentration 100.0 nM
[27] = target: T3, Serine/threonine-protein kinase Nek2 (Homo sapiens) (UniProt P51955); conditions: Compound concentration 100.0 nM
T3 sequence (whole entry): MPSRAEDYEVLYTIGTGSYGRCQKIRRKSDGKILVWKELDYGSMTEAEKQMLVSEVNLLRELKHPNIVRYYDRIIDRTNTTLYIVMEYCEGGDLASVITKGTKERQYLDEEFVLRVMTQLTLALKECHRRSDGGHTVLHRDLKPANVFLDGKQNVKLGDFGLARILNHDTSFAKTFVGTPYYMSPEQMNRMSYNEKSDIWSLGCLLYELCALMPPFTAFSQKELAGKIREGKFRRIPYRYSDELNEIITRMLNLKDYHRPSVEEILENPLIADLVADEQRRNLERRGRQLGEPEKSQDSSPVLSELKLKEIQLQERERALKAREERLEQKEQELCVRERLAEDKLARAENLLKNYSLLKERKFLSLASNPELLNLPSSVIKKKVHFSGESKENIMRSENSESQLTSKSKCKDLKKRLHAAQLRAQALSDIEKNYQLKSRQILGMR

[28] = system: Mast/stem cell growth factor receptor Kit (Homo sapiens), P10721 [V559D,V654A]; conditions: Compound concentration 100.0 nM
[29] = target: Mitogen-activated protein kinase kinase kinase kinase 4 (Homo sapiens) (UniProt O95819); conditions: Compound concentration 100.0 nM

Sequence of MAP kinase-interacting serine/threonine-protein kinase 1 (Homo sapiens) (Q9BUB5 whole entry, looked up): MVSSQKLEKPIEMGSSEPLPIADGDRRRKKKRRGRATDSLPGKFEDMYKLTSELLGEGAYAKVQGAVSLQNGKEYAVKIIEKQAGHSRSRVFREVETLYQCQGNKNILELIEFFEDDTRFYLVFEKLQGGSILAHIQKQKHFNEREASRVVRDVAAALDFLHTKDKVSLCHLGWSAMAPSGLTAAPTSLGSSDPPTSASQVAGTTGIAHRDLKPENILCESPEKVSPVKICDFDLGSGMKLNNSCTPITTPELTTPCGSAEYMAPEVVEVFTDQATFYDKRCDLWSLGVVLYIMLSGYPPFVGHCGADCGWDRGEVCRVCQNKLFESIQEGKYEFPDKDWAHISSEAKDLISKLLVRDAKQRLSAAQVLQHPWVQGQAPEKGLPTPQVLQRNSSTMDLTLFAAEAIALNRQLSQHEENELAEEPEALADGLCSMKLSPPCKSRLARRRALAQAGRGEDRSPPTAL
Sequence of Mitogen-activated protein kinase kinase kinase 12 (Homo sapiens) (Q12852 whole entry): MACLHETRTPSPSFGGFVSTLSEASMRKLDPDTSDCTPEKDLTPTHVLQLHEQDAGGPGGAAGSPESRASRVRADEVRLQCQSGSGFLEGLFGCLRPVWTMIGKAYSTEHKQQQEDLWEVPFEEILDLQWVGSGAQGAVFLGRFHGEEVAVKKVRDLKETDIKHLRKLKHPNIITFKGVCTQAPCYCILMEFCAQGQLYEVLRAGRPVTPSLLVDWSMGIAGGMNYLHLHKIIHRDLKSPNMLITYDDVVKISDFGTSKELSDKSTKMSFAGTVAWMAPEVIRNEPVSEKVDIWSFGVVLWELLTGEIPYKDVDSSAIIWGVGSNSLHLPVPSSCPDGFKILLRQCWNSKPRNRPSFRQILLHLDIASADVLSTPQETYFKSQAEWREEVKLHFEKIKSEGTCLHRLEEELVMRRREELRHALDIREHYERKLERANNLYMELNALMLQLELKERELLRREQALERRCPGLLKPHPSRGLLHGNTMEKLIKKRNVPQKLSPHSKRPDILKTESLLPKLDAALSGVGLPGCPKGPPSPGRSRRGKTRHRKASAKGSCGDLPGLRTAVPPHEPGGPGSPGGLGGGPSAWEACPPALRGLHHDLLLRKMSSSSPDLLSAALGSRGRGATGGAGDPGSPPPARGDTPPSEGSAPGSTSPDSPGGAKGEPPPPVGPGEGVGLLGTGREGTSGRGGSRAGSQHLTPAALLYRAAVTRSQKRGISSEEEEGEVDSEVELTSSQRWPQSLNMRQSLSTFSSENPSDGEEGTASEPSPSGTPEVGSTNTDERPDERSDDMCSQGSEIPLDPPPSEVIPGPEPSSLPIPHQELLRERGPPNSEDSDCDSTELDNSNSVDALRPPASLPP
Sequence of MAP/microtubule affinity-regulating kinase 3 (Homo sapiens) (P27448 whole entry, looked up): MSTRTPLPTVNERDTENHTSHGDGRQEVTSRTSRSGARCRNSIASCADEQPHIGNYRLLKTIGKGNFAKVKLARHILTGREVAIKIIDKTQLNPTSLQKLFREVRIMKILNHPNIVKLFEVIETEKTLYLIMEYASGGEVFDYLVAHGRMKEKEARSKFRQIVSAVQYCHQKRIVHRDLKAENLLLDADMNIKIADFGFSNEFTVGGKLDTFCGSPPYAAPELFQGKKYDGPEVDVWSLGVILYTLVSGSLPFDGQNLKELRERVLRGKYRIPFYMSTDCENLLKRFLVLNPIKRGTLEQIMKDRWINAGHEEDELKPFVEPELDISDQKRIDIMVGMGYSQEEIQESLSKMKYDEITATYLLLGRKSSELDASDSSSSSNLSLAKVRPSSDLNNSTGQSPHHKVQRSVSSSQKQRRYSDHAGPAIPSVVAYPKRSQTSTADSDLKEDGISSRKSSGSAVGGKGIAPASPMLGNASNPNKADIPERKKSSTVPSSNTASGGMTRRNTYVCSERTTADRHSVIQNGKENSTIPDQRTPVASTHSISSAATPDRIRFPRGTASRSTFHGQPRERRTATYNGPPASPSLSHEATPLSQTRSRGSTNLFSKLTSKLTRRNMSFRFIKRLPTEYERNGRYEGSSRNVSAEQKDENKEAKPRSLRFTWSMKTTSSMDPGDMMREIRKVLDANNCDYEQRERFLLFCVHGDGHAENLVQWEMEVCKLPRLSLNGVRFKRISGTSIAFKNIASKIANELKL
Sequence of Phosphatidylinositol 4,5-bisphosphate 3-kinase catalytic subunit alpha isoform (Homo sapiens) (P42336 whole entry, canonical isoform): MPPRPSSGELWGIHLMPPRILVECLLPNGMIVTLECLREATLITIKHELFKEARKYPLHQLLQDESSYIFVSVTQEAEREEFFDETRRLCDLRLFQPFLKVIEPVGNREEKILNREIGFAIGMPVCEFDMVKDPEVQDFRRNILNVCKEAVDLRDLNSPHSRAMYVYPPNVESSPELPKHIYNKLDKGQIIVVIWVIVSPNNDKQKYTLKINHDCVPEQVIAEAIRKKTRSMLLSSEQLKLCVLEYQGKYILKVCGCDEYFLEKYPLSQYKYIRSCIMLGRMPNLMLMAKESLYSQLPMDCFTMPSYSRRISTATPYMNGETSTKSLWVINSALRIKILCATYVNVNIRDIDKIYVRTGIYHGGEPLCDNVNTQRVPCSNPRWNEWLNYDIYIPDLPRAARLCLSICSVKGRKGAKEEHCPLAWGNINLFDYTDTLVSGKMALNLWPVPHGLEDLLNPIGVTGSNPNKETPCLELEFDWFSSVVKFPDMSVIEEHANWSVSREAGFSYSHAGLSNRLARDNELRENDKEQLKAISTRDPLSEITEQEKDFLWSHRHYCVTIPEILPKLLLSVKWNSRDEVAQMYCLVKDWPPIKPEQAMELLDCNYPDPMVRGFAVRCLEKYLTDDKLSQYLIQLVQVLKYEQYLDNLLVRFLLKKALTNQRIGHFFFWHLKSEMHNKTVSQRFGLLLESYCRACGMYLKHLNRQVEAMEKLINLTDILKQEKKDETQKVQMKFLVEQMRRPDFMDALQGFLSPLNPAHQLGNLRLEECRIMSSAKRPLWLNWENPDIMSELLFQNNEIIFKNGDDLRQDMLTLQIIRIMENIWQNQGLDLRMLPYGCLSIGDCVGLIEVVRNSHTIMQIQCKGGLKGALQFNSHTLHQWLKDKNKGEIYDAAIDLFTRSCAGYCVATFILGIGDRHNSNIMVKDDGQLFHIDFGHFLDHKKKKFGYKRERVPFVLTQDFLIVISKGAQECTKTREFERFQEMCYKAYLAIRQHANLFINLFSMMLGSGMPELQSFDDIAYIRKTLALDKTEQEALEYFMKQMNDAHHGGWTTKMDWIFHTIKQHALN
Sequence of Cyclin-dependent kinase 19 (Homo sapiens) (Q9BWU1 whole entry): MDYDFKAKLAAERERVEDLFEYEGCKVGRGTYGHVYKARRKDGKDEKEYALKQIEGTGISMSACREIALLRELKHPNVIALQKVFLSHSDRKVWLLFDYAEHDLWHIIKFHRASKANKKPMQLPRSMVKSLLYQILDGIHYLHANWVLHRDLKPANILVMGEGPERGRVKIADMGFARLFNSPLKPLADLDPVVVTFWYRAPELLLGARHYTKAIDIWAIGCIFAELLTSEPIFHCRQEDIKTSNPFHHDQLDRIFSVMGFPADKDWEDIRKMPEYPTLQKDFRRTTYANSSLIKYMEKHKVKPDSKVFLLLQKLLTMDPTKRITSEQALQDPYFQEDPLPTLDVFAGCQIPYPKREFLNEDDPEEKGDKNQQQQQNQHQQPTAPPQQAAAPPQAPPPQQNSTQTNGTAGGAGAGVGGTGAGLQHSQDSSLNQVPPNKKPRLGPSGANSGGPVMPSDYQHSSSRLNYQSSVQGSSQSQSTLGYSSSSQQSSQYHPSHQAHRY
Sequence of Serine/threonine-protein kinase VRK2 (Homo sapiens) (Q86Y07 whole entry): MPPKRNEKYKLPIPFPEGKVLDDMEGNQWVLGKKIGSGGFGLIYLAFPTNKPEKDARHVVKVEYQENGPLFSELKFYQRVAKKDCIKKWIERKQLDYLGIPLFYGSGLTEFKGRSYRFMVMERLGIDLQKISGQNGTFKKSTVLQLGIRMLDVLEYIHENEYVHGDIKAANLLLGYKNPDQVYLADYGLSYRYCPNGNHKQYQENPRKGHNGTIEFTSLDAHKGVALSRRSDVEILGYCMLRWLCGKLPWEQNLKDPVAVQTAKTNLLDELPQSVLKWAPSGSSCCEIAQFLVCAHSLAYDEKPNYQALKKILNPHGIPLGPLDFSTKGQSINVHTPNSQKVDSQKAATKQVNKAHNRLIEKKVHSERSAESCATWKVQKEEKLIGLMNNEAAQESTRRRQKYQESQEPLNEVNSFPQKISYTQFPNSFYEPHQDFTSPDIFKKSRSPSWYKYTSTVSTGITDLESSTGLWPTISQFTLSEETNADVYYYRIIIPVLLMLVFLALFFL
Sequence of Ribosomal protein S6 kinase alpha-5 (Homo sapiens) (O75582 whole entry, looked up): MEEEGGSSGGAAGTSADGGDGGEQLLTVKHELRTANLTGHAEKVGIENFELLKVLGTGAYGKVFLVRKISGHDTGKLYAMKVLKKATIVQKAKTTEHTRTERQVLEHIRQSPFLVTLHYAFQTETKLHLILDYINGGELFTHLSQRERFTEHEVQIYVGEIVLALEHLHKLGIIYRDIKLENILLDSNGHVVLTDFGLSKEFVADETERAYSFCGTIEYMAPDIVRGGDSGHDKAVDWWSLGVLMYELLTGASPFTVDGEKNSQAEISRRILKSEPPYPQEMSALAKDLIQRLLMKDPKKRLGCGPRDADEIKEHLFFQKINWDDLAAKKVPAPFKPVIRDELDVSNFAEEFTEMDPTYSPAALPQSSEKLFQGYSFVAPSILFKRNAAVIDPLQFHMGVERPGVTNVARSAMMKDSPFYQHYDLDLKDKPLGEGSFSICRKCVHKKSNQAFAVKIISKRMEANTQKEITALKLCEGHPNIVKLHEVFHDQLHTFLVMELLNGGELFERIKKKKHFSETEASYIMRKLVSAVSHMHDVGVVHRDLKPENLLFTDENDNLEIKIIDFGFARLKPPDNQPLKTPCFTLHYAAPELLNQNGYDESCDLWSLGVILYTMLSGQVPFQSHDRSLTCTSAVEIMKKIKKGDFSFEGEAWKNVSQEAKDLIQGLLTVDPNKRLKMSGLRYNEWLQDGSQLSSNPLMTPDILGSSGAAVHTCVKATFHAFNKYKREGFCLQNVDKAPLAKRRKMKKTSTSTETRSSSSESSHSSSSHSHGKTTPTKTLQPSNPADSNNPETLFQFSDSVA

Cc1c[nH]c2nccc(Oc3c(F)cc(Nc4cc(Cl)nc(N)n4)cc3F)c12 [BAY-549]
inactive: residual activity [1] 100% | residual activity [2] 96% | residual activity [3] 100% | residual activity [4] 98% | residual activity [5] 91% | residual activity [6] 99% | residual activity [7] 100% | residual activity [8] 93% | residual activity [9] 85% | residual activity [10] 93% | residual activity [11] 100% | residual activity [12] 100% | residual activity [13] 100% | residual activity [14] 100% | residual activity [15] 74% | residual activity [16] 76% | residual activity [17] 82% | residual activity [18] 80% | residual activity [19] 85% | residual activity [20] 86% | residual activity [21] 89% | residual activity [22] 100% | residual activity [23] 83% | residual activity [24] 100% | inhibition [25] 10.4% | residual activity [26] 100% | residual activity [27] 97% | residual activity [28] 94% | residual activity [29] 94%

Cn1cc(Cl)c2c(Oc3c(F)cc(Nc4cc(Cl)nc(N)n4)cc3F)ccnc21 [BAY-4900]
inactive: residual activity [1] 100% | residual activity [2] 84% | residual activity [3] 100% | residual activity [4] 100% | residual activity [5] 94% | residual activity [6] 87% | residual activity [7] 100% | residual activity [8] 100% | residual activity [9] 83% | residual activity [10] 86% | residual activity [11] 78% | residual activity [12] 100% | residual activity [13] 100% | residual activity [14] 100% | residual activity [15] 83% | residual activity [16] 81% | residual activity [17] 96% | residual activity [18] 88% | residual activity [19] 78% | residual activity [20] 100% | residual activity [21] 95% | residual activity [22] 100% | residual activity [23] 79% | residual activity [24] 100% | inhibition [25] 17.3% | residual activity [26] 100% | residual activity [27] 100% | residual activity [28] 90% | residual activity [29] 86%
